For 79 compounds, RP-LC retention time results are on record in the METLIN SMRT retention time set (Domingo-Almenara et al. 2019).

The data set is described as follows: gradient 5% acetonitrile 3 min, to 50% in 2 min, to 85% in 15 min, held 3 min, 100 µL/min. Particulars: column: Zorbax Extend-C18 2.1 x 50 mm; eluents: water / acetonitrile, 0.1% formic acid. The essentials:
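Mixtures of ~100 pure standards were chromatographed on a Zorbax Extend-C18 column (2.1 × 50 mm, 1.8 μm) at 100 μL/min using water and acetonitrile, each with 0.1% formic acid. Detection used a quadrupole time-of-flight mass spectrometer in positive and negative ionization mode, and data collection spanned 3 months. Retention time was obtained from adduct peaks picked computationally and each checked manually.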
Turning to `CCCN1C(=O)COc2ccc(-c3noc(-c4ccc(N(C)C)cc4)n3)cc21`, the RP-LC retention time came out at 1280 s.

As to `CC(=O)Nc1ccc2nc(-c3ccc(Cl)cc3)cc(OCC(N)=O)c2c1`, the RP-LC retention time turned out to be 621 s. With `COc1cccc(S(=O)(=O)N2CCC(n3cnnc3-c3ccccc3)CC2)c1`, the RP-LC retention time was 775 s. The same measure for `Cc1ccc(CNc2nc3ccncc3n(C(C)C)c2=O)cc1`: 701 s. The same measure for `Cc1cc(C)nc(Nc2nc(CC(=O)N3CCN(C4CCCCC4)CC3)cs2)n1`: 558 s; for `OCc1nnn(-c2ccccc2)c1CO`: 642 s. `CC1CCCN(c2nn(CC(=O)Nc3ccc(F)cc3)c(=O)c3ccccc23)C1` (centres undefined): the RP-LC retention time is 1090 s.

Turning to `CC1=C(c2ccc(C)c(C)c2)S(=O)(=O)N=C1N1CCCN(C(=O)NCCC(C)C)CC1`, the RP-LC retention time worked out at 906 s.

As for `c1ccc(-c2nc(-c3cccc(-c4ccn[nH]4)c3)no2)cc1`, the RP-LC retention time turned out to be 966 s. On to `O=C(CC1COc2ccccc2NC1=O)Nc1ccc2c(c1)OCCO2` (centres undefined), for which the RP-LC retention time came out at 688 s. With `CCC(=O)N(C1CCOCC1)C1CCN(S(=O)(=O)c2ccc(Cl)c(C)c2)CC1`, the RP-LC retention time came out at 954 s. The same measure for `CCCn1cnnc1C1CCCCN1S(=O)(=O)c1cccnc1` (centres undefined): 580 s; for `CCc1ccc(CNC(=O)Cn2c(CC)nc3onc(C)c3c2=O)cc1`: 907 s. The compound `Nc1nc2ccc(Cl)cc2n2c(-c3ccccc3)nnc12` yielded an RP-LC retention time of 867 s. `Cc1ccc(Cn2nc3ccc(S(=O)(=O)N4CCOCC4)cn3c2=O)cc1` displayed an RP-LC retention time of 977 s. `O=C(CS(=O)Cc1cnn(-c2ccccc2)c1-n1cccc1)NCCc1ccc(Cl)cc1` (centres undefined): the RP-LC retention time stood at 892 s.

Compound `Cc1nc2cccnc2n1C1CCN(C(=O)Nc2ccc3c(c2)CCC3)C1` (centres undefined) registered an RP-LC retention time of 620 s. The compound `COc1ccc(-c2noc(C3CC(=O)N(c4ccc(C(C)C)cc4)C3)n2)cc1OC` (centres undefined) came in with an RP-LC retention time of 870 s. Compound `COc1ccc(-c2nc3cccc(C)n3c2Nc2ccc3c(c2)OCCO3)cc1` returned an RP-LC retention time of 987 s. `Cc1nnsc1C(=O)Nc1nnc(Cc2ccc3c(c2)OCO3)o1` had an RP-LC retention time of 740 s. `CCCCOc1ccc(C(=O)N(Cc2ccc(Br)o2)C2CCS(=O)(=O)C2)cc1` (centres undefined) returned an RP-LC retention time of 1090 s.

In turn, `CCc1ccc(CNC(=O)c2ccc3ncnc(N4CCCC4)c3c2)cc1` showed an RP-LC retention time of 697 s. The same measure for `CCn1cnc(S(=O)(=O)N2CCC(C(=O)N3CCc4ccccc4C3)CC2)c1`: 729 s. `Cc1nc(-c2ccccc2)sc1C(=O)N1CCC(CC(=O)N2CCOCC2)CC1` gave an RP-LC retention time of 667 s.

Compound `CO[C@H]1C(=O)N(C(C)C)[C@H]1C1CCN(C(=O)c2cnccn2)CC1` yielded an RP-LC retention time of 621 s. `CC(=O)c1ccc(NC(=O)COc2cc(C)nc(-c3ccc(F)cc3)n2)cc1` displayed an RP-LC retention time of 938 s. `COc1ccc(NC(=O)C2CC(=O)N(c3ccc4c(c3)CCN4C(=O)C3CC3)C2)cc1` (centres undefined): the RP-LC retention time amounted to 740 s. The same measure for `O=C(Cn1nc(C(=O)N2CCOCC2)c2ccccc21)N1CCN(c2ccccn2)CC1`: 594 s; for `Cc1ccc(-c2nc3cccnc3n2CCCNC(=O)NCc2ccco2)cc1`: 674 s. With `CCC(C)NC(=O)N1CCCN(C2=NS(=O)(=O)C(c3ccccc3)=C2C)CC1` (centres undefined), the RP-LC retention time is 748 s.

As to `COc1ccc(Cn2c(C)c(CNCCc3ccco3)c(C(=O)O)c2C)cc1`, the RP-LC retention time was determined as 704 s. As to `COc1cccc(NC(=O)Cn2nc3nc(N4CCCC(C)C4)ccn3c2=O)c1` (centres undefined), the RP-LC retention time stood at 768 s.

`Cc1nnc2ccc(S(=O)(=O)Nc3ccc(F)c(F)c3)cn12` displayed an RP-LC retention time of 692 s. The compound `Cn1ccnc1SCC(=O)Nc1nc(-c2ccc(F)cc2)cs1` showed an RP-LC retention time of 639 s. The same measure for `Cc1cc(=O)n(CC(=O)Nc2ccccc2F)c(N2CCCCC2)n1`: 649 s.

As for `Cn1c(=O)c2ccn(CC(=O)N3CCC(C(N)=O)(N4CCCCC4)CC3)c2n(C)c1=O`, the RP-LC retention time amounted to 728 s. `CCOc1ccccc1NC(=O)Cn1c(=O)n(-c2ccc(F)cc2)c(=O)c2c1cc(C)n2C` displayed an RP-LC retention time of 933 s. As to `COc1cc(-c2noc(Cn3ccn(-c4ccccc4)c(=O)c3=O)n2)cc(OC)c1OC`, the RP-LC retention time came to 749 s. The same measure for `CCN(CC)S(=O)(=O)c1ccc2c(c1)CC(C(=O)NCCC1=CCCCC1)N2C(C)=O` (centres undefined): 921 s; for `O=C(NC(Cc1ccccc1)c1nnc(N2CCCC2)o1)c1ccco1` (centres undefined): 713 s. Turning to `Cc1nn(CC(=O)NCCCN2CCCC2=O)c(=O)c2nc(-c3ccccc3)sc12`, the RP-LC retention time worked out at 668 s. On to `Cc1c(S(=O)(=O)NC2CC2)c(C)n(C)c1-c1nnc(C2CCC2)o1`, for which the RP-LC retention time was found to be 787 s. On to `CS(=O)(=O)Nc1ccc(C2(C(=O)NCc3ccc(F)c(Cl)c3)CCCCC2)cc1`, for which the RP-LC retention time was 950 s.

In turn, `Cc1ccc(CNC(=O)C2(C)CCCN(C(=O)Nc3ccc(Cl)cc3)C2)cc1` (centres undefined) returned an RP-LC retention time of 1010 s. With `Cc1cccc(NC(=O)N2CCC(n3cnc4cc(Cl)ccc4c3=O)CC2)c1`, the RP-LC retention time came out at 877 s. Take `CCn1cc(-c2ccc(C)cc2)cc1C(=O)NC(C)c1cccnc1` (centres undefined): the RP-LC retention time turned out to be 736 s. Consider `O=S(=O)(c1ccc(Cl)s1)N1CCN(c2ccc(-n3ccnc3)nn2)CC1`, for which the RP-LC retention time is 593 s. `O=C(CCc1c(-c2cccc(Cl)c2)nc2ccccn12)NCc1ccco1` returned an RP-LC retention time of 637 s.

With `CC(C)n1cnc2cc(CNC(=O)c3c(F)cccc3F)ccc21`, the RP-LC retention time stood at 612 s.

On to `Cc1ccc(NC(=O)c2cccc([N+](=O)[O-])c2O)c(C)c1`, for which the RP-LC retention time was 951 s.

Compound `Cc1ccc(CNC(=O)Cn2c(=O)cc(-c3nc(C)no3)c3ccccc32)cc1` had an RP-LC retention time of 857 s. In turn, `CCOC(=O)c1cccc(Nc2c(-c3ccc(C(=O)OC)cc3)nc3cnccn23)c1` yielded an RP-LC retention time of 902 s. With `COc1cccc(CNC(=O)Cn2cnc3nc(N4CCCC(C(=O)NC5CC5)C4)sc3c2=O)c1` (centres undefined), the RP-LC retention time worked out at 666 s. `c1ccc(CNc2nc(-c3ccccc3)no2)cc1` gave an RP-LC retention time of 975 s.

The compound `CCOc1ccccc1NS(=O)(=O)c1ccc2c(c1)CCCC(=O)N2` gave an RP-LC retention time of 783 s. The same measure for `O=C(CN1CCN(S(=O)(=O)c2ccccc2)CC1)Nc1ccc(Br)cc1`: 722 s. `Cc1ccc(Nc2c(-c3cc(Br)ccc3F)nc3cc(C)ccn23)cc1` gave an RP-LC retention time of 818 s. Regarding `O=C(C1CCN(c2nc3ccc(-c4ccc(F)cc4)nc3s2)CC1)N1CCOCC1`, the RP-LC retention time was determined as 864 s.

In turn, `CN(Cc1ccccc1)c1ccc(-c2noc(CN3CCC4(CC3)OCCO4)n2)cn1` displayed an RP-LC retention time of 745 s. The compound `COc1ccc(-c2cn3c(CC(=O)N4CCN(c5cccc(Cl)c5)CC4)csc3n2)cc1OC` came in with an RP-LC retention time of 835 s. In the case of `Cc1cc(NC(=O)c2cnc3c(c2)c(=O)n(C)c(=O)n3-c2ccccc2)ccc1F`, the RP-LC retention time was determined as 942 s. On to `Cn1nccc1C(=O)N1CCN(c2cc(=O)n(C)c(=O)n2C)CC1`, for which the RP-LC retention time is 587 s. In the case of `Cc1cc2c(=O)n(CC(=O)Nc3ccc(F)c(F)c3)ccc2s1`, the RP-LC retention time worked out at 826 s. On to `CC1CCN(S(=O)(=O)c2cc(C(=O)N3CCN(c4cccc(Cl)c4)CC3)n(C)c2)CC1`, for which the RP-LC retention time amounted to 1120 s. On to `O=c1c2cc(-c3ccccc3Cl)nn2cnn1Cc1nc(-c2ccc(F)cc2)no1`, for which the RP-LC retention time is 1140 s. With `Cc1ccccc1S(=O)(=O)N1CCC(n2cnnc2-c2ccccc2)CC1`, the RP-LC retention time was 773 s.

Turning to `COC(=O)C1C(O)CCC2CN3CCc4c([nH]c5ccccc45)C3CC21` (centres undefined), the RP-LC retention time was 673 s. The compound `COCCN(CC(=O)N1CCc2sccc2C1COc1ccccc1)C(=O)COC` (centres undefined) registered an RP-LC retention time of 787 s. Regarding `Clc1ccc(-c2ccc(CNCC3CCCO3)o2)c(Cl)c1` (centres undefined), the RP-LC retention time came to 738 s. The same measure for `Cn1cccc(C(=O)N2CCC(CNC(=O)c3ccc(Cl)s3)CC2)c1=O`: 610 s. `Cc1cccc(N2CCN(C(=O)C3CCN(Cc4cn(C)c5ccc(Cl)cc45)CC3)CC2)c1C`: the RP-LC retention time stood at 878 s.

Compound `CC(C)Oc1ccc(CNC(=O)CCCN2C(=O)CCn3nc(-c4cccn4C)cc32)cc1` yielded an RP-LC retention time of 833 s.

With `O=C(NCCCN1CCCC1)C1CN(C(=O)c2ccccc2)CC12CCCCC2` (centres undefined), the RP-LC retention time amounted to 611 s. The same measure for `CC1=C(c2ccc(Cl)cc2)S(=O)(=O)N=C1N1CCCN(C(=O)C2CCOC2)CC1` (centres undefined): 733 s; for `O=C(CSc1nc(-c2ccccc2)c(NC(=O)c2cccs2)s1)NC1CC1`: 782 s; for `Cc1ccc(S(=O)(=O)N2C[C@@H](F)C[C@H]2C(=O)N2CCc3ccccc3C2)cc1F`: 954 s. Take `CC[C@@H](c1cccc(O)c1)[C@@H](C)CN(C)C`: the RP-LC retention time was 633 s. Regarding `CC(C)CN1CCn2cc(S(=O)(=O)Nc3ccc(Cl)cc3F)cc2C1=O`, the RP-LC retention time turned out to be 858 s. The compound `CSc1ncccc1C(=O)N1CCCn2nc(-c3ccncc3)cc2C1` gave an RP-LC retention time of 586 s.
